Patent publication US20130089570A1, “ORAL VACCINE CO[…] ANTIGEN AND A TOLL-LIKE RECEPTOR AGONIST” (Glaxo Smith Kline Biologicals S.A., priority 2010, published 2013)
Where two headings read alike, the source gives them in different places. Marks after values point to notes of the source that are not given here.

Test system: A/Solomon Island virus (A/SI/3/2006)
Format: in vivo, BALB/c mice
Conditions: for IgA concentration in mucosal samples GeoMean, BAL / IgA concentration in mucosal samples GeoMean, Feces / IgA concentration in mucosal samples GeoMean, Nasal Wash / IgA concentration in mucosal samples GeoMean, Saliva / IgA concentration in mucosal samples GeoMean, Vaginal Wash: days 0 and 14, two weeks after second immunization
[1] = Table 1 study, dose of Ag 14 μg
[2] = Table 2 study, A/SI/3/2006 7.5 μg, adjuvant 1 μg

| Compound | IgA concentration in mucosal samples GeoMean, BAL (Table 1 study, dose of Ag 7 μg) | IgA concentration in mucosal samples GeoMean, Feces (Table 1 study, dose of Ag 7 μg) | IgA concentration in mucosal samples GeoMean, Nasal Wash (Table 1 study, dose of Ag 7 μg) | IgA concentration in mucosal samples GeoMean, Saliva (Table 1 study, dose of Ag 7 μg) [ng/mL] | IgA concentration in mucosal samples GeoMean, Vaginal Wash (Table 1 study, dose of Ag 7 μg) | IgA concentration in mucosal samples GeoMean, BAL [1] [ng/mL] | IgA concentration in mucosal samples GeoMean, Feces [1] | IgA concentration in mucosal samples GeoMean, Nasal Wash [1] [ng/mL] | IgA concentration in mucosal samples GeoMean, Saliva [1] [ng/mL] | IgA concentration in mucosal samples GeoMean, Vaginal Wash [1] | IgA concentration in mucosal samples GeoMean, BAL [2] [ng/mL] | IgA concentration in mucosal samples GeoMean, Feces [2] [ng/mL] | IgA concentration in mucosal samples GeoMean, Nasal Wash [2] [ng/mL] | IgA concentration in mucosal samples GeoMean, Saliva [2] [ng/mL] | IgA concentration in mucosal samples GeoMean, Vaginal Wash [2] | IgA BAL levels compared to IM immunization (Table 2 study, Kruskal Wallis and Dunn's multiple comparison test) | IgA response in vaginal wash by adjuvantation (Table 2 study, vaginal wash) |
| --- | --- | --- | --- | --- | --- | --- | --- | --- | --- | --- | --- | --- | --- | --- | --- | --- | --- |
| CCCCCCCCCCC[C@H](CC(=O)N[C@H]1[C@H](OC[C@H](NC(=O)C[C@@H](CCCCCCCCCCC)OC(=O)CCCCCCCCC)C(=O)O)O[C@H](CO)[C@@H](OP(=O)(O)O)[C@@H]1OC(=O)C[C@@H](CCCCCCCCCCC)OC(=O)CCCCCCCCC)OC(=O)CCCCCCCCC [CRX527] | 7.43*** ng/mL | 48.40*** ng/mL | 11.88* ng/mL | 7.53 | 81.01*** ng/mL | 3.67 | 75.71*** ng/mL | 8.22 | 5.13 | 120.80*** ng/mL | 3.47 | 8.68 | 3.50 | 3.22 | 7.05 ng/mL |  |  |
| Flagellin |  |  |  |  |  |  |  |  |  |  | 4.04 | 14.56 | 4.00 | 2.69 | 9.93** ng/mL | significantly higher | highly increased the IgA response |
